Data published in publication PMC9501633, “Synthesis, Characterisation and Mechanism of Action of Anticancer 3-Fluoroazetidin-2-ones” (Pharmaceuticals, 2022).

Tests used:
MDA-MB-231 cells = test: AlamarBlue cell viability assay; type: cell-based; details: Homo sapiens, MDA-MB-231, 72 h
Procedure: The potent 3-fluoro-β-lactam compound 33 synthesised was also evaluated in the triple-negative MDA-MB-231 cell line which lacks expression of the estrogen and progesterone receptors (ER/PR) and the HER2 receptor. […]. Compound 32 was also evaluated in the triple-negative breast cancer cell line Hs578T and its isogenic subclone Hs578T(i)8 (Figure 4C). Hs578Ts(i)8 cells have 2.5-fold more migratory capacity and 3-fold more invasive capacity through the extracellular matrix than the parental cell line (Hs578T) and have 30% more CD44+/CD24-/low cells and in vivo proliferation. […]. […] Cell proliferation for MCF-7 cells was analysed with the AlamarBlue assay (Invitrogen Corp.) as previously described by us. […] Fluorescence results were obtained with a 96-well fluorimeter with excitation at 530 nm and emission at 590 nm with results recorded as percentage viability relative to vehicle control (100%). […]
Figure 4 Antiproliferative activity of 3-fluoro β-lactams on MCF-7, MDA-MB-231, Hs578T and Hs578T isogenic subclone Hs578T(i)8 breast cancer cells and non-tumourigenic HEK-293T cells. […] Cell viability was expressed as a percentage of vehicle control (ethanol 1% (v/v))-treated cells. […] Cell viability was expressed as a percentage of vehicle control (ethanol 1% (v/v))-treated cells and was measured by AlamarBlue assay (average of three independent experiments). […]

MCF-7 cells = test: Annexin V-FITC/PI apoptosis assay (flow cytometry); type: cell-based, human; details: 48 h
Procedure: Among the cell death pathways, apoptosis is very important to maintain cellular homeostasis. However, upon severe and irreparable cellular stress, all cells, including cancer cells, undergo apoptosis. In this work, the Annexin V–FITC/PI double-staining method was used in assessing the development of apoptosis when MCF-7 cells are exposed to compound 33 (0.1 and 0.5 μM for 48 h). MCF-7 cells were first treated with compound 33 for 48 h followed by staining with Annexin V–fluorescein isothiocyanate (FITC)/propidium iodide (PI). Live cells (Annexin V^−/PI^−), early apoptotic cells (Annexin V^+/PI^−), late apoptotic cells (Annexin V+/PI+) and necrotic cells (Annexin V^−/PI^+) can be differentiated by tie technique following flow cytometric analysis (Figure 5). The positive control CA-4 (at 50 nM concentration) induced 34.6% Annexin V-positive apoptotic cells, and the vehicle control used was 0.1% ethanol (v/v).
Apoptotic cell death was monitored by flow cytometry using Annexin V and propidium iodide (PI) as previously described by us. MCF-7 cells were seeded in 6-well plates at a density of 1 × 10^5 cells/mL and treated with either vehicle (0.1% (v/v) EtOH) or β-lactam compound 33 at concentrations 0.1 and 0.5 µM for 48 h. Cells were harvested and prepared for flow cytometric analysis. Cells were washed in 1X binding buffer (20X binding buffer: 0.1 M HEPES, pH 7.4; 1.4 M NaCl; 25 mM CaCl2 diluted in dH2O) and incubated in the dark for 30 min on ice in Annexin V-containing binding buffer [1:100]. Cells were then washed in binding buffer and then re-suspended in PI-containing binding buffer (1:1000). Samples were then analysed with the BD Accuri flow cytometer and Prism software. The resulting cell populations were identified as Annexin V- and PI-negative (Q4, healthy cells), Annexin V-positive and PI-negative (Q3, early apoptosis), Annexin V- and PI-positive (Q2, late apoptosis) and Annexin V-negative and PI-positive (Q1, necrosis). The positive control for induction of cell death was […].
Figure 5 Compound 33 induces apoptosis in MCF-7 breast cancer cells. […] .

[1] = system: purified bovine brain tubulin; test: Tubulin polymerisation assay (turbidimetric, 340 nm); type: biochemical
Procedure: Tubulin polymerisation was investigated using a turbidimetric assay which determines the light scattering by microtubules (absorbance at 340 nm) that is proportional to the microtubule polymer concentration.
Tubulin polymerisation was monitored with purified bovine tubulin using the BK006 kit supplied by Cytoskeleton Inc. (Denver, CO, USA), carried out following the manufacturer’s instructions with the standard assay conditions. Purified (>99%) bovine brain tubulin (3 mg/mL) in a buffer containing PIPES (80 mM, pH 6.9), EGTA (0.5 mM), MgCl2 (2 mM), GTP (1 mM) and glycerol (10%) was incubated at 37 °C in the presence of either vehicle (2% (v/v) ddH2O) or paclitaxel (10 µM), CA-4 (10 μM) or 33 (10 and 30 µM). The effect on tubulin assembly was monitored turbidimetrically at 340 nm in a Spectramax 340 PC spectrophotometer (Molecular Devices, Sunnyvale, CA, USA), with the light scattered depending on the concentration of polymerised microtubules formed. The absorbance was measured at 30 s intervals for 60 min.
Figure 7 Effect of β-lactam compound 33 (10 and 30 µM) and paclitaxel (10 µM) on in vitro tubulin polymerisation. Purified bovine tubulin and GTP were mixed in a 96-well plate. Compounds were added and the reaction was started by warming the solution from 4 to 37 °C. Ethanol (1% v/v) was used as a vehicle control. The effect on tubulin assembly was monitored in a Spectramax 340PC spectrophotometer at 340 nm at 30 s intervals for 30 min at 37 °C. […] Each experiment was performed in duplicate.

SMILES | IC50 (MDA-MB-231 cells) [nM] | viability at 0.05 µM (MCF-7 cells; Homo sapiens, MCF7, MCF-7, 50 nM, read-out: Viable cells) [%] | Annexin V-positive apoptotic cells (MCF-7 cells; MCF-7, 50 nM) [%] | viability at 0.1 µM (MCF-7 cells; Homo sapiens, MCF7, MCF-7, 0.1 μM, read-out: Viable cells) [%] | viability at 0.5 µM (MCF-7 cells; Homo sapiens, MCF7, MCF-7, 0.5 μM, read-out: Viable cells) [%] | apoptosis (early + late) (MCF-7 cells; MCF-7, 0.1 μM) [%] | early apoptotic cells (MCF-7 cells; MCF-7, 0.1 μM) [%] | late apoptotic cells (MCF-7 cells; MCF-7, 0.1 μM) [%] | apoptosis (early + late) (MCF-7 cells; MCF-7, 0.5 μM) [%] | early apoptotic cells (MCF-7 cells; MCF-7, 0.5 μM) [%] | late apoptotic cells (MCF-7 cells; MCF-7, 0.5 μM) [%] | reduction in the Vmax of tubulin polymerisation compared to the vehicle ([1]; 10 μM) [fold] | reduction in the Vmax of tubulin polymerisation compared to the vehicle ([1]; 30 µM) [fold] | effect on tubulin polymerisation ([1]; paclitaxel 10 µM, 33 10 and 30 µM)
COc1ccc(/C=C\c2cc(OC)c(OC)c(OC)c2)cc1O [CA-4, combretastatin A-4, reference compound] | 43 | 61.8 | 34.6 | – | – | – | – | – | – | – | – | – | – | –
COc1ccc(C2C(F)C(=O)N2c2cc(OC)c(OC)c(OC)c2)cc1F (stereo not drawn) [Compound 33, 3-Fluoro-4-(3-fluoro-4-methoxyphenyl)-1-(3,4,5-trimethoxyphenyl)azetidin-2-one] | 620 | – | – | 84.9 | 48.8 | 14.2 | 8.1 | 6.1 | 45.9 | 22.1 | 23.8 | 3.5 | 4 | inhibited tubulin polymerisation
